Data on five compounds can be found in US20130178517A1, “Methods And Compositions For Treatment Of Lipogenic Virus Related Conditions” (priority 2010, published 2013).

Entries after “also recorded” stand apart in the source; their conditions may differ.

For assay [1], the system named is Ad-36 in preadipocytes. To be noted: preadipocytes in tissue culture; cited from earlier work.
Assay [2] deals with FAS protein in MCF-7 cells infected with Ad-36. Kind of assay: FAS protein expression (Western blot) in MCF-7 cells infected with Ad-36. To be noted: Ad-36-infected MCF-7 cells; for FAS protein expression: vs infected untreated control; for amount of FAS protein: range of 10 uM/L to 100 uM/L (FIG. 8). It is filed as cell-based, human. On the procedure:
MCF-7 cells were incubated with Adv36 and a range of 10 uM/L to 100 uM/L of Didox or Tridox.
Human breast cancer cells (MCF-7) were infected with Ad-36 virus and treated with antiviral compounds Didox or Tridox. MCF-7 cells were incubated with Ad-36 and a range of about 10 μM/L to about 100 μM/L of Didox or Tridox. The control for the experiments was MCF-7 cells infected with Ad-36 that were not treated with an antiviral compound. Fifty micrograms of protein was loaded per lane on an SDS-PAGE gel, followed by Western blot analysis detecting FAS.
(In general: In western blotting, separated proteins are transferred to a membrane and probed.)

The subject of assay [3] is FAS protein in 3T3-L1 cells. Kind of assay: FAS protein expression (Western blot) in 3T3-L1 preadipocyte cells with MDI and Ad-36. To be noted: for FAS protein as dosage is increased: 3T3-L1 preadipocyte cells (FIG. 9 as described). It is filed as cell-based, mouse. The procedure:
The effects of Tridox on FAS protein expression were evaluated in 3T3-L preadipocyte cells. Control cells were maintained without exposure to Ad-36 or to the differentiation cocktail of methyl-isobutyl-xanthine, dexamethasone, and insulin (MDI). See, e.g., Ntambi and CheulKim, J. Nutrition, 120: […] for description of MDI differentiation cocktail.

Assay [4] deals with phosphorylated Akt in MCF-10A cells. The experiment in a line: Akt phosphorylation (Western blot) in MCF-10A cells with or without Ad-36 infection. It is filed as cell-based, human. On the procedure:
MCF-10A cells were infected with Ad-36 and treated with luteolin and/or metformin, then Akt phosphorylation was measured using Western blot. The top band is phosphorylated Akt. […] Lane 2 is MCF-10A cells infected with Ad-36 virus. Lane 3 is metformin, MCF-10A cells infected with Ad-36 virus. Lane 4 is uninfected MCF-10A cells treated with metformin. Lane 5 is MCF-10A cells infected with Ad-36 virus and treated with luteolin. Lane 6 is uninfected MCF-10A cells treated with luteolin. Lane 7 is MCF-10A cells infected with Ad-36 and treated with a combination of metformin and luteolin. Lane 8 is uninfected MCF-10A cells treated with a combination of metformin and luteolin.

Assay [5] has as its system Ad-36. The experiment in a line: Replication of Ad-36 in A549 cells assessed by cytopathic effect (CPE). It is filed as cell-based, human adenovirus 36 in human A549 cells. To be noted: multiple different doses, 100 TCID/well, CPE 3 and 4 days post-infection. The procedure: A549 cells were infected with a fixed amount of Ad-36 (100 TCID/well) for 2 hours, then media containing the virus was removed, replaced with serial dilutions of metformin, luteolin, or a combination. Cytopathic effect (CPE) was evaluated 3 days and 4 days post-infection (PI). Each condition had 8 wells. The efficacy of the different drug treatments was evaluated by determining whether there were fewer wells with CPE as compared to the control condition for the different treatment conditions, which reflected the degree to which a particular treatment was working to inhibit the virus.

The test system of assay [6] is Ad-36. The experiment in a line: TCID50 of A549 cells exposed to Ad-36. The class given is cell-based, human adenovirus 36 in human A549 cells. The procedure:
“TCID50” refers to 50% tissue culture infective dose (TCID50), an endpoint dilution assay that quantifies the amount of virus required to kill 50% of infected hosts or to produce a cytopathic effect in 50% of inoculated tissue culture cells.
The experimental conditions were assessed: (A) Control condition in which cells were infected with the virus throughout incubation, no luteolin added; (B) Cells and virus were both pretreated with luteolin, then the cells were incubated with both the virus and luteolin; and (C) Cells pretreated with luteolin only, luteolin removed, then cells incubated with virus but without luteolin. The TCID50 value was calculated for each group.

Assay [7] deals with MCF-10A cells infected with Ad-36. Kind of assay: Growth rate (cell count) of MCF-10A cells infected with Ad-36. It is filed as cell-based, human. To be noted: 5 μM. On the procedure: FIG. 11 is a graph showing that luteolin reduces the growth rate of MCF-10A cells infected with Ad-36. […] Over a time course, cells were trypsinized and counted using a hemocytometer. As illustrated, ⋄ refers to mock infected cells incubated without luteolin; □ refers to mock infected cells treated with luteolin; Δ refers to Ad-36-infected cells incubated without luteolin; and × refers to Ad-36-infected cells treated with luteolin.
Luteolin reduces the growth rate of […] (MCF-10A) that have been infected with Ad-36 in tissue culture (FIG. 11). MCF-10A cells were infected with a multiplicity of infection (MOI) of 0.5 at day 0 for 2 hours, then replaced with fresh medium containing 5 μM luteolin or vehicle. At each time period, cells were trypsinzed and counted using a hemocytometer. Fresh luteolin (5 μM) was added on day 0 (after infection), day 3 and day 5 in order to insure a constant concentration of agent. […] The cells infected with Ad-36 and not exposed to luteolin had the highest growth rate, faster than cells without Ad-36. When luteolin is added, cell growth is slowed.

[8] abbreviates: MCF-10A cells infected with Ad-36 and treated.
Where [9] appears, read: uninfected MCF-10A cells treated.

Consider `Nc1ccn(C[C@@H](CO)OCP(=O)(O)O)c(=O)n1` [Cidofovir], for which the “lipogenic effect of Ad-36” value in assay [1] was “block the lipogenic effect”.
On to `O=C(NO)c1ccc(O)c(O)c1` [Didox, 3,4 dihydrobezohydoxamic acid], for which the FAS protein expression entry in assay [2] (about 50 μM) and in assay [2] (about 100 μM) was “decrease” in each case. The “amount of FAS protein” value in assay [2] is given as “decreased”. Further, the “FAS protein as dosage is increased” value in assay [3] was “decreased”.
As to `CN(C)C(=N)N=C(N)N` [metformin], the Akt phosphorylation entry in assay [4] (setting [8]) is reported as “marked reduction”; in assay [4] (setting [9]) it was “stimulated”. Moreover, the “effect of Ad-36 on A549 cells (CPE, replication)” value in assay [5] is “inhibits”.
Take `NC(=NO)c1cc(O)c(O)c(O)c1` [Tridox, 3,4,5 trihydroxybenzamidoxime]: the FAS protein expression entry in assay [2] (about 10 μM), in assay [2] (about 50 μM) and in assay [2] (about 100 μM) was “decrease” each time. For the same compound, in assay [2], the “amount of FAS protein” value is listed as “decreased”. Moreover, the “infection with Ad-36 (conclusion from FAS data)” value in assay [3] (3T3-L1 cells) is given as “inhibits infection with Ad-36”. In addition, in assay [3] (3T3-L1 cells exposed to Ad-36 in media containing 10 μM), the FAS protein levels entry is given as “even lower”. Moreover, the FAS expression entry in assay [3] (3T3-L1 cells infected with Ad-36, then incubated with MDI and 10 μM) is listed as “modest decrease”; in assay [3] (3T3-L1 cells pretreated with compound, then incubated with MDI and Ad-36), “more marked decrease; also recorded: greater decrease”. Besides, in assay [3], the “FAS protein as dosage is increased” value is “decreased”.
Turning to `O=c1cc(-c2ccc(O)c(O)c2)oc2cc(O)cc(O)c12` [luteolin], the “virulence of Ad-36 infection / Ad-36 infection” value in assay [6] (A549 cells, overall conclusion) was “blocks virulence; also recorded: inhibits Ad-36 infection”. Besides, the TCID50 value entry in assay [6] (Group B: cells and virus pretreated with luteolin, then cells incubated with virus and luteolin, vs control) was “slightly higher than control”; in assay [6] (Group C: cells pretreated with luteolin only, luteolin removed, then incubated with virus) it was “lowest and low”. For the same compound, the TCID value entry in assay [6] (second experiment (not shown), same condition as Group B, vs control) was “increased almost twice as much as the control value”. The “growth rate (cell number)” value in assay [7] (Ad-36-infected (MOI 0.5) MCF-10A cells) is given as “slowest growth rate; also recorded: slow growth rate”. Moreover, the “cell growth when compound is added” value in assay [7] (MCF-10A cells) is recorded as “slowed”. In addition, the Akt phosphorylation result in assay [4] (setting [8]) is given as “marked reduction”; in assay [4] (setting [9]), “stimulated”. For the same compound, in assay [5], the “effect of Ad-36 on A549 cells (CPE, replication)” value is “inhibits”.
